Converted amounts (≈) assume the structure as drawn.
System: not listed separately
Assay: physchem
Type: physicochemical
Settings: pH 7.4, aqueous buffer, kinetic from dmso stock
Experimental: 40 μL of a 10 mM solution in DMSO of the sample are added to 1.96 mL MeOH or PBS at pH 7.4. The samples are then agitated during 24 h at RT, centrifuged during 5 min and then filtrated on filters of 0.45 μm pore size. 20 μL of each solution are then added to 180 μL MeOH and then analyzed by LC-MS. The solubility is determined as ratio of the surfaces of the mass signals PBS/MeOH.

Work on `O=C(CCC(F)(F)F)N1CCC2(CC1)CC(c1ccccc1)=NO2` [Compound 10] yielded a solubility at 24 h of 150 µM (≈ 51.1 µg/mL).

System: macrophages infected by M. tuberculosis
Assay: Potentiation of ethionamide cell test (HCS)
Type: cell-based
Settings: ligand concentration necessary to potentiate ten times the activity of ethionamide (inhibit 50% of bacterial growth), constant ethionamide 0.1 μg/mL (1/10th of its CMI99)

In order of rising EC50:
1. O=C(CCC(F)(F)F)N1CCC2(CC1)CC(c1ccccc1)=NO2 [Compound 10]  20 nM
2. COc1ccccc1C1=NOC2(CCN(C(=O)CCC(F)(F)F)CC2)C1 [Compound 14]  20 nM
3. O=C(CCC(F)(F)F)N1CCC2(CC1)CC(Cc1ccccc1)=NO2 [Compound 29]  20 nM
4. O=C(CCC(F)(F)F)N1CCC2(CC1)CC(c1cccs1)=NO2 [Compound 6]  30 nM
5. O=C(CCC(F)(F)F)N1CCC2(CC1)CC(c1ccccc1Cl)=NO2 [Compound 20]  30 nM
6. O=C(CCC(F)(F)F)N1CCC2(CC1)CC(c1nccs1)=NO2 [Compound 7]  40 nM
7. O=C(CCC(F)(F)F)N1CCC2(CC1)CC(c1ccco1)=NO2 [Compound 30]  50 nM
8. O=C(CCCC(F)(F)F)N1CCC2(CC1)CC(c1nccs1)=NO2 [Compound 9]  70 nM
9. O=C(CCC(F)(F)F)N1CCC2(CC1)CC(C1CCCCC1)=NO2 [Compound 27]  80 nM
10. O=C(CCC(F)(F)F)N1CCC2(CC1)CC(C1CCCC1)=NO2 [Compound 28]  80 nM
11. O=C(CCC(F)(F)F)N1CC2(CC(c3ccccc3)=NO2)C1 [Compound 5]  110 nM
12. CC(C)CCC(=O)N1CCC2(CC1)CC(c1cccs1)=NO2 [Compound 8]  130 nM
13. O=C(CCC(F)(F)F)N1CCC2(CC1)CC(c1ccccn1)=NO2 [Compound 31]  150 nM
14. COc1cccc(C2=NOC3(CCN(C(=O)CCC(F)(F)F)CC3)C2)c1 [Compound 15]  290 nM
15. O=C(CCC(F)(F)F)N1CCC2(CC1)CC(c1cccc(C(F)(F)F)c1)=NO2 [Compound 23]  400 nM
16. O=C(CCC(F)(F)F)N1CCC2(CC1)CC(c1ccc(F)cc1)=NO2 [Compound 22]  500 nM
17. O=C(CCC(F)(F)F)N1CCC2(CC(c3ccccc3)=NO2)C1 (stereo not shown) [Compound 4]  530 nM
18. COc1ccccc1C1=NOC2(CCN(C(=O)CCC(C)C)CC2)C1 [Compound 49]  630 nM
19. O=C(CCCC(F)(F)F)N1CCC2(CC1)CC(c1ccccc1Cl)=NO2 [Compound 50]  770 nM
20. O=C(CCCC(F)(F)F)N1CCC2(CC1)CC(c1ccccc1)=NO2 [Compound 51]  1000 nM
21. O=C(CCc1ccccc1)N1CCC2(CC1)CC(c1ccccc1)=NO2 [Compound 59]  1000 nM
22. O=C(CCC(F)(F)F)N1CCC2(CC1)CC(c1ccc3c(c1)OCO3)=NO2 [Compound 18]  1300 nM
23. CC(C)CCC(=O)N1CCC2(CC1)CC(c1ccccn1)=NO2 [Compound 45]  1300 nM
24. CC(C)CCC(=O)N1CCC2(CC1)CC(c1ccccc1Cl)=NO2 [Compound 46]  1300 nM
25. Cc1ccc(C2=NOC3(CCN(C(=O)CCC(F)(F)F)CC3)C2)cc1 [Compound 11]  2500 nM
26. CC(C)CCC(=O)N1CCC2(CC1)CC(c1ccccc1)=NO2 [Compound 32]  5000 nM
27. O=C(CCC(F)(F)F)N1CCC2(CC1)CC(c1ccc(Cl)cc1)=NO2 [Compound 21]  5800 nM

— patent US10174050B2, “Spiroisoxazoline compounds having an activity potentiating the activity of an antibiotic” (priority 2012, dated 2019)
